Results published in US11472792B2, “Herbicidal mixtures” (SYNGENTA CROP PROTECTION AG, priority 2019, dated 2022).

Legend:
Type in all cases: in vivo
[1] = tested on: Amaranthus retroflexus (AMARE); experiment: Herbicidal efficacy, post-emergence application (glasshouse); settings: Amaranthus retroflexus, 312 h, evaluated visually after 13 days, 100=total damage, 0=no damage, read-out: percentage phytotoxicity to the plant, AMARE
Protocol: (§1) Seeds of a variety of test species [Ipomoea hederacea (IPOHE); Zea mays (ZEAMX); Echinochloa crus-galli (ECHCG); Setaria faberi (SETFA); Abutilon theophrasti (ABUTH); Amaranthus retroflexus (AMARE)] were sown in standard sterilised soil in pots. After cultivation for one day (pre-emergence) or after 8 days cultivation (post-emergence) under controlled conditions in a glasshouse (at 24/16° C., day/night; 14 hours light; 65% humidity), the plants were sprayed with an aqueous spray solution derived from the formulation of the technical active ingredient in acetone/water (50:50) solution containing 0.5% Tween 20 (polyoxyethelyene sorbitan monolaurate, CAS RN 9005-64-5), subsequently diluted in water, and sprayed to give the stated application rate.
(§2) The test plants were then grown under controlled conditions in a glasshouse (at 24/16° C., day/night; 14 hours light; 65% humidity) and watered twice daily.
(§3) After 13 days for pre and post-emergence, the test was evaluated visually for percentage phytotoxicity to the plant (where 100=total damage to plant; 0=no damage to plant).

[2] = tested on: Abutilon theophrasti (ABUTH); experiment: as above; settings: Abutilon theophrasti, 312 h, evaluated visually after 13 days, 100=total damage, 0=no damage, read-out: percentage phytotoxicity to the plant, ABUTH
Protocol: as §1, §2, §3

[3] = tested on: Ipomoea hederacea (IPOHE); experiment: as above; settings: Ipomoea hederacea, 312 h, evaluated visually after 13 days, 100=total damage, 0=no damage, read-out: percentage phytotoxicity to the plant, IPOHE
Protocol: as §1, §2, §3

Zea mays (ZEAMX) [4] = experiment: as above; settings: Zea mays, 312 h, evaluated visually after 13 days, 100=total damage, 0=no damage, read-out: percentage phytotoxicity to the plant, ZEAMX
Protocol: as §1, §2, §3

Setaria faberi (SETFA) [5] = experiment: as above; settings: Setaria faberi, 312 h, evaluated visually after 13 days, 100=total damage, 0=no damage, read-out: percentage phytotoxicity to the plant, SETFA
Protocol: as §1, §2, §3

[6] = tested on: Echinochloa crus-galli (ECHCG); experiment: as above; settings: Echinochloa crus-galli, 312 h, evaluated visually after 13 days, 100=total damage, 0=no damage, read-out: percentage phytotoxicity to the plant, ECHCG
Protocol: as §1, §2, §3

[7] = tested on: Amaranthus retroflexus (AMARE); experiment: Herbicidal efficacy, pre-emergence application (glasshouse); settings: Amaranthus retroflexus, 312 h, evaluated visually after 13 days, 100=total damage, 0=no damage, read-out: percentage phytotoxicity to the plant, AMARE
Protocol: as §1, §2, §3

[8] = tested on: Abutilon theophrasti (ABUTH); experiment: as above; settings: Abutilon theophrasti, 312 h, evaluated visually after 13 days, 100=total damage, 0=no damage, read-out: percentage phytotoxicity to the plant, ABUTH
Protocol: as §1, §2, §3

[9] = tested on: Ipomoea hederacea (IPOHE); experiment: as above; settings: Ipomoea hederacea, 312 h, evaluated visually after 13 days, 100=total damage, 0=no damage, read-out: percentage phytotoxicity to the plant, IPOHE
Protocol: as §1, §2, §3

Zea mays (ZEAMX) [10] = experiment: as above; settings: Zea mays, 312 h, evaluated visually after 13 days, 100=total damage, 0=no damage, read-out: percentage phytotoxicity to the plant, ZEAMX
Protocol: as §1, §2, §3

Setaria faberi (SETFA) [11] = experiment: as above; settings: Setaria faberi, 312 h, evaluated visually after 13 days, 100=total damage, 0=no damage, read-out: percentage phytotoxicity to the plant, SETFA
Protocol: as §1, §2, §3

[12] = tested on: Echinochloa crus-galli (ECHCG); experiment: as above; settings: Echinochloa crus-galli, 312 h, evaluated visually after 13 days, 100=total damage, 0=no damage, read-out: percentage phytotoxicity to the plant, ECHCG
Protocol: as §1, §2, §3

Compound | pest or weed control at 250 g/ha [1] [%] | pest or weed control at 250 g/ha [2] [%] | pest or weed control at 250 g/ha [3] [%] | plant injury at 250 g/ha (Zea mays (ZEAMX) [4]) [%] | pest or weed control at 250 g/ha (Setaria faberi (SETFA) [5]) [%] | pest or weed control at 250 g/ha [6] [%] | pest or weed control at 250 g/ha [7] [%] | pest or weed control at 250 g/ha [8] [%] | pest or weed control at 250 g/ha [9] [%] | plant injury at 250 g/ha (Zea mays (ZEAMX) [10]) [%] | pest or weed control at 250 g/ha (Setaria faberi (SETFA) [11]) [%] | pest or weed control at 250 g/ha [12] [%]
CN1C[C@H](c2cc(C(F)(F)F)n(C)n2)[C@@H](C(=O)Nc2cccc(F)c2OC(F)F)C1=O [Compound 2.10, (3S,4R)-N-[2-(difluoromethoxy)-3-fluoro-phenyl]-1-methyl-4-[1-methyl-5-(trifluoromethyl)pyrazol-3-yl]-2-oxo-pyrrolidine-3-carboxamide] | 0 | 0 | 30 | 80 | 80 | 80 | 0 | 0 | 20 | 40 | 90 | 90
CN1C[C@H](c2cc(C(F)(F)F)n(C)n2)[C@@H](C(=O)Nc2ccc(F)nc2F)C1=O [Compound 2.8, (3S,4R)-N-(2,6-difluoro-3-pyridyl)-1-methyl-4-[1-methyl-5-(trifluoromethyl)pyrazol-3-yl]-2-oxo-pyrrolidine-3-carboxamide] | 0 | 0 | 30 | 80 | 80 | 80 | 20 | 0 | 0 | 40 | 90 | 90
